Ends that are not written are not given here.
Test system: kidneys
Conditions: unlabeled competitor 100 or 2000 nmol co-injected with 2 nmol SEQ ID NO: 4-AF647; 1 hour

Sequence: KKEEEKKEEEKKEEEKK [SEQ ID NO: 571]
- competition with uptake of the peptide of SEQ ID NO: 4 in kidneys: failed to compete
